System: sporozoites of P. falciparum
Assay: Inhibition of penetration of sporozoites into human hepatocytes
Assay type: cell-based
Settings: sera of immunized C57BL/6 mice; 1:5 solution of sample; human hepatoma cells
Description: Human hepatoma cells were seeded at a concentration of 10^5 cells/chamber in Lab.-Tek plastic chambers (Miles) and cultivated for 24-48 hours
Then, to each chamber 25 μl was charged of a suspension containing 5-10^4 sporozoites of P. falciparum and 25 μl of a 1:5 solution of the sample under test.
The sporozoites were obtained from salivary glands of Anopheles stephensi infected with P. falciparum.
Two and six days later, the number of infected hepatocytes was determined by immunofluorescence by using monoclonal anti-P. falciparum CS protein antibodies.

(Asn--Ala--Asn--Pro)40 [(NANP)40]
inhibition of the penetration of the sporozoites of P. falciparum into the hepatic cells: < 86%

— patent publication US5225530A, “Polypeptide useful for the preparation of antimalarial vaccines and of diagnostic kits for the detection of malarial affections” (priority 1986, dated 1993)
